# Experimental data published in PMC337094 (BMC Biochemistry, 2003).
# T1: riboflavin synthase of B. subtilis (Bacillus subtilis, UniProt P16440)
# T1 sequence (P16440 1-215): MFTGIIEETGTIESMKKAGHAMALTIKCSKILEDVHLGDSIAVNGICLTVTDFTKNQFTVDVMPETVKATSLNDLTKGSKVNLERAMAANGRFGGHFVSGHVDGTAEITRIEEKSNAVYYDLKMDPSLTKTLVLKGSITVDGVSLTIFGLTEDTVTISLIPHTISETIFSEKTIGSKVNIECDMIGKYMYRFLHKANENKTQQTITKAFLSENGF
# T2: recombinant N-terminal domain of E. coli riboflavin synthase (Escherichia coli, UniProt P0AFU8)
# T2 sequence (P0AFU8 1-97): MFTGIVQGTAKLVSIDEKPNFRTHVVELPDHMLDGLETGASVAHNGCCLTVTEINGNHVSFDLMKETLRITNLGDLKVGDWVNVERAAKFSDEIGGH
# T3: riboflavin synthase of E. coli (Escherichia coli, UniProt P0AFU8)
# T3 sequence (P0AFU8 1-213): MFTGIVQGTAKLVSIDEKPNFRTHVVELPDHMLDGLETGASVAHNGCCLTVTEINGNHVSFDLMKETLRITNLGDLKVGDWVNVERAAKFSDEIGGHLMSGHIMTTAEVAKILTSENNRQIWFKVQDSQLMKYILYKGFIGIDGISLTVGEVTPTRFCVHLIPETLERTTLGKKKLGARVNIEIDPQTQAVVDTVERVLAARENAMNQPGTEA
# T4: riboflavin synthase of S. pombe (SSP-Rosy) (Schizosaccharomyces pombe, UniProt Q9Y7P0)
# T4 sequence (Q9Y7P0 1-208): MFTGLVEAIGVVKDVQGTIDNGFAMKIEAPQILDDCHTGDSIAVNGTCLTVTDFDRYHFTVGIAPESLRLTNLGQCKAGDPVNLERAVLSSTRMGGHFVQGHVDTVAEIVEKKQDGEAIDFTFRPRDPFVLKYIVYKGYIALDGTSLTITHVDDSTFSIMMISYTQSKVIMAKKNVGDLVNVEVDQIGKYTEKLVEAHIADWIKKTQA
# B1: Riboflavin synthase of Schizosaccharomyces pombe (enzyme, UniProt Q9Y7P0 1-208, looked up)
# chain: T4 sequence (Q9Y7P0 1-208)
# Tests used:
# [1] = target: T1, riboflavin synthase of B. subtilis; assay: […] NMR protein perturbation; assay type: binding; settings: 20 mM phosphate pH 7.0, 100 mM KCl, 10% D2O, 11 °C
# [2] = target: T2, recombinant N-terminal domain of E. coli riboflavin synthase; assay: […] NMR protein perturbation; assay type: binding; settings: 20 mM phosphate pH 7.0, 100 mM KCl, 10% D2O, 11 °C
# [3] = target: lumazine protein of P. leiognathi (Photobacterium leiognathi, UniProt Q06877); assay: […] NMR protein perturbation; assay type: binding; settings: 20 mM phosphate pH 7.0, 100 mM KCl, 10% D2O, 11 °C
# [4] = target: T3, riboflavin synthase of E. coli; assay: […] NMR protein perturbation; assay type: binding; settings: 20 mM phosphate pH 7.0, 100 mM KCl, 10% D2O, 11 °C
# [5] = target: T4, riboflavin synthase of S. pombe (SSP-Rosy); assay: […] NMR protein perturbation; assay type: binding; settings: 20 mM phosphate pH 7.0, 100 mM KCl, 10% D2O, 11 °C
# [6] = target: T4, riboflavin synthase of S. pombe (SSP-Rosy); assay: […] NMR displacement of compound 6a; assay type: binding; settings: 20 mM phosphate pH 7.0, 100 mM KCl, 10% D2O, 11 °C; data not shown
# AUC = target: the molecule itself; assay: AUC
# Sequence of lumazine protein of P. leiognathi (Q06877 whole entry): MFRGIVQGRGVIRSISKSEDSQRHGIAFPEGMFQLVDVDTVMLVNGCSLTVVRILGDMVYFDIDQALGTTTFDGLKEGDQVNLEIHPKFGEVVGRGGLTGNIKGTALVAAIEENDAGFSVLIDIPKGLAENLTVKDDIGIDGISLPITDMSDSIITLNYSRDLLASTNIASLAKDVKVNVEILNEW
Molecule,19F NMR bound-ligand signal [1],19F NMR bound-ligand signal [2],19F NMR bound-ligand signal [3],19F NMR bound-ligand signal [4],19F NMR bound-ligand signal [5],19F NMR displacement of compound 6a [6],stoichiometry N (AUC)
"O=c1[nH]c2c(c(=O)[nH]1)N=C(C(F)(F)F)[C@@](O)(C(F)(F)F)N2C[C@H](O)[C@H](O)[C@H](O)CO (single isomer, unassigned; epimer a) [6a, 6,7-bis(trifluoromethyl)-8-ribityllumazine hydrate (epimer A)]","the riboflavin synthases (Figs. 6C,6D,6E) studied show multiple signals",show single lines for each trifluoromethyl group of bound Compound 6a,show single lines for each trifluoromethyl group of bound Compound 6a,"the riboflavin synthases (Figs. 6C,6D,6E) studied show multiple signals",riboflavin synthase of S. pombe binds epimer A,–,–
"Cc1cc2nc3c(=O)[nH]c(=O)nc-3n(C[C@H](O)[C@H](O)[C@H](O)CO)c2cc1C [compound 4, riboflavin]",–,–,–,–,–,could be displaced from S. pombe protein by addition of riboflavin,–
"O=c1[nH]c(=O)c2nc(C(F)(F)F)c(=O)n(C[C@H](O)[C@H](O)[C@H](O)CO)c2[nH]1 [compound 7, 6-trifluoromethyl-7-oxo-8-ribityllumazine]",B. subtilis (Fig. 5D) show similar signal multiplicities,show single and much narrower lines for the protein bound ligand,lumazine protein (Fig. 5A),The riboflavin synthases of E. coli (Fig. 5C),in complex with riboflavin synthase of S. pombe shows four signals,–,–
B1,–,–,–,–,–,–,3
